The values below come from article PMC3910367 (Science signaling, 2013).

Usually IC50 stands for the concentration needed to halve the response being measured. A word on the Kd: it is a measure of binding affinity in units of concentration.

The target in experiment [1] is T1, PH domain of PHLPP1 (Homo sapiens, UniProt O60346).
T1 sequence (O60346 536-636 limits assumed): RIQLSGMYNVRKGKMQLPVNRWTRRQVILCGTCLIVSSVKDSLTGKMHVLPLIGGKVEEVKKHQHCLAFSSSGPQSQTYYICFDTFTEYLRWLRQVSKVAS
Briefly: SPR binding to GST-tagged PH domain of PHLPP1.

Experiment [2] deals with normal prostate epithelial cells. Briefly: MTT viability assay in normal prostate epithelial cells. It is filed as cell-based. As to conditions: for apoptosis in normal prostate epithelial cells: fig. S1A.
The subject of experiment [3] is LNCaP and PC-3 cells. As to the kind of experiment: MTT viability assay in prostate cancer cells. The format is cell-based. Conditions: read-out: IC50, antiproliferative effect (cell viability). Background: Formazan colour is commonly taken as a measure of viable cells.
For experiment [4], the system named is LNCaP cells. Briefly: Cholesterol content of membrane subfractions. It is filed as cell-based. As to conditions: fractions 3 and 4.
The target of experiment [5] is PH domain of Akt (Homo sapiens, UniProt P31749). Briefly: SPR binding to GST-tagged PH domain of Akt. Conditions: read-out: Kd, wild-type Akt PH domain. A general note: Surface plasmon resonance follows binding to a sensor surface in real time, without labels.
Chain of PH domain of Akt (P31749 5-108 limits assumed): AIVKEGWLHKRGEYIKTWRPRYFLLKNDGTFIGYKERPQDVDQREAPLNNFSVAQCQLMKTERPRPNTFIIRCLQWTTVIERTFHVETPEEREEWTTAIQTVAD
In experiment [6] the test system is LNCaP cells. It is filed as cell-based. Conditions: 24 hours.
The subject of experiment [7] is LNCaP-abl cells. Briefly: MTT viability assay in LNCaP-abl cells. The format is cell-based. Conditions: read-out: IC50, antiproliferative effect, fig. S5D.
For experiment [8], the system named is Akt. Briefly: Western blot of Akt phosphorylation in prostate cancer cells. Conditions: for phosphorylation at Ser473 in Akt / phosphorylation at Thr308 in Akt: LNCaP and PC-3 cells, 24 hours; for concentrations required to induce PHLPP1-mediated Akt inhibition: prostate cancer cells. The format is cell-based.
Experiment [9] has as its system mTORC2. As to the kind of experiment: Western blot of mTORC2 components and downstream targets. The format is cell-based. As to conditions: fig. S2C. On the technique in general: A western blot detects proteins with antibodies after separation by electrophoresis.
Experiment [10] addresses Y38G PH domain mutant of Akt (Homo sapiens, UniProt P31749, Y38G). As to the kind of experiment: SPR binding to Y38G Akt PH domain mutant. As to conditions: versus wild-type PH domain.
The test system of experiment [11] is PIP3. Briefly: Radiometric analysis of phosphoinositide production. It is filed as cell-based. As to conditions: LNCaP cells, 500 μM, 6 hours.

Structures are written as SMILES. Where two headings read alike, the source gives them in different places.

Chain of Y38G PH domain mutant of Akt (P31749 5-108 Y38G limits assumed): as the sequence (P31749 5-108 limits assumed) above, with Y34G counted along it

For the molecule `Cc1c(C)c2c(c(C)c1O)CCC(C)(CCCC(C)C)O2` (stereo not drawn) [α-VE5], the “binding to PH domains of Akt and PHLPP1 compared” value in experiment [1] is recorded as “equal potency”. In addition, the concentration for half-maximal inhibition (IC50) in experiment [2] (read-out: IC50, cell viability, MTT, 24 hours) is around 50 µM; in [3] (LNCaP and PC-3 cells, MTT, 24 hours, serum-free medium) it was 15 to 20 µM; in [7], 10 µM. Besides, the “reduction of cholesterol content in raft domains” value in experiment [4] was at most 30%. In addition, in experiment [5], the Kd was 3.4 µM. In experiment [6], the “decrease in phosphorylation of Ser473 in Akt in non-raft fractions” value was “more than 65%”. The “increase in association of PHLPP1 with the membrane in non-raft fractions” value in [6] was “more than 2.5 fold”. Moreover, the “phosphorylation at Ser473 in Akt” value in experiment [8] is “parallel reduction”. In addition, in experiment [8], the “phosphorylation at Thr308 in Akt” value is given as “without disturbing”. In experiment [9], the “phosphorylation of SGK or PKCα (mTORC2 downstream targets)” value (“phosphorylation of SGK or PKCα” below) is recorded as “lack of changes”. Further, the “effect of Y38G mutation on binding affinity for the Akt PH domain” value in [10] was “significantly enhanced”.
`Cc1c(C)c2c(c(C)c1O)CC[C@@](C)(CCC[C@H](C)CCC[C@H](C)CCCC(C)C)O2` [α-tocopherol]: the “apoptosis in normal prostate epithelial cells” value in experiment [2] was “resistant”. Moreover, the IC50 in experiment [3] (24 h) was around 400 µM. In addition, in [11], the PIP3 concentrations result is given as “unaffected”. Moreover, in [8], the “phosphorylation at Ser473 in Akt” value is listed as “dose-dependently reduced”, the “phosphorylation at Thr308 in Akt” value was “without altering” and the “concentrations required to induce PHLPP1-mediated Akt inhibition” value is given as “greater than 150 μM”. Besides, in [9], the “phosphorylation of SGK or PKCα” value was “no effect”.
As for `Cc1c(O)cc2c(c1C)O[C@](C)(CCC[C@H](C)CCC[C@H](C)CCCC(C)C)CC2` [γ-tocopherol], the “apoptosis in normal prostate epithelial cells” value in experiment [2] is “resistant”. Moreover, the IC50 in [3] (24 h) fell in the range of 100 to 150 µM. Also, in [8], the “phosphorylation at Ser473 in Akt” value is recorded as “dose-dependently reduced”, the “phosphorylation at Thr308 in Akt” value was “without altering” and the “concentrations required to induce PHLPP1-mediated Akt inhibition” value is listed as “greater than 150 μM”. The “phosphorylation of SGK or PKCα” value in experiment [9] is given as “no effect”.
